From patent publication US20230049231A1 (priority 2019, published 2023)

Assays:
[1] = biological target: T1, Kv1.3 potassium channel (Homo sapiens, UniProt P22001); assay: Kv1.3 potassium channel blocker activity, automated whole-cell patch clamp (Patchliner); type: cell-based
T1 construct: expressed in transfected cells
Experimental: This assay is used to evaluate the disclosed compounds' activities as Kv1.3 potassium channel blockers.
CHO-K1 cells stably expressing Kv1.3 were grown in DMEM containing 10% heat-inactivated FBS, 1 mM sodium pyruvate, 2 mM L-glutamine and G418 (500 μg/ml). Cells were grown in culture flasks at 37° C. in a 5% CO2-humidified incubator.
(§1) The cells were bathed in an extracellular solution containing 140 mM NaCl, 4 mM KCl, 2 mM CaCl2), 1 mM MgCl2, 5 mM glucose, and 10 mM HEPES; pH adjusted to 7.4 with NaOH; 295-305 mOsm. The internal solution contained 50 mM KCl, 10 mM NaCl, 60 mM KF, 20 mM EGTA, and 10 mM HEPES; pH adjusted to 7.2 with KOH; 285 mOsm. All compounds were dissolved in DMSO at 30 mM. Compound stock solutions were freshly diluted with external solution to concentrations of 30 nM, 100 nM, 300 nM, 1 μM, 3 μM, 10 μM, 30 μM and 100 μM. The highest content of DMSO (0.3%) was present in 100 μM.
The currents were evoked by applying 100 ms depolarizing pulses from −90 mV (holding potential) to +40 mV were applied with 0.1 Hz frequency. Control (compound-free) and compound pulse trains for each compound concentration applied contained 20 pulses.
10-second breaks were used between pulse trains (see Table 2 below).
Whole-cell current recordings and compound application were enabled by means of an automated patch clamp platform Patchliner (Nanion Technologies GmbH). EPC 10 patch clamp amplifier (HEKA Elektronik Dr. Schulze GmbH) along with Patchmaster software (HEKA Elektronik Dr. Schulze GmbH) was used for data acquisition. Data were sampled at 10 kHz without filtering. Passive leak currents were subtracted online using a P/4 procedure (HEKA Elektronik Dr. Schulze GmbH). Increasing compound concentrations were applied consecutively to the same cell without washouts in between. Total compound incubation time before the next pulse train was not longer than 10 seconds. Peak current inhibition was observed during compound equilibration.
(§2) AUC and peak values were obtained with Patchmaster (HEKA Elektronik Dr. Schulze GmbH). To determine IC50, the last single pulse in the pulse train corresponding to a given compound concentration was used. Obtained AUC and peak values in the presence of compound were normalized to control values in the absence of compound. Using Origin (OridinLab), IC50 was derived from data fit to Hill equation: Icompound/Icontrol=(100−A)/(1+([compound]/IC50)nH)+A, where IC50 value is the concentration at which current inhibition is half-maximal, [compound] is the applied compound concentration, A is the fraction of current that is not blocked and nH is the Hill coefficient.

[2] = biological target: T2, hERG channel (Homo sapiens, UniProt Q12809); assay: hERG electrophysiology, automated whole-cell patch clamp (Patchliner); type: cell-based
T2 construct: expressed in transfected cells
Experimental: This assay is used to evaluate the disclosed compounds' inhibition activities against the hERG channel.
CHO-K1 cells stably expressing hERG were grown in Ham's F-12 Medium with glutamine containing 10% heat-inactivated FBS, 1% penicillin/streptomycin, hygromycin (100 μg/ml) and G418 (100 μg/ml). Cells were grown in culture flasks at 37° C. in a 5% CO2-humidified incubator.
as §1
The voltage protocol (see Table 3) was designed to simulate voltage changes during a cardiac action potential with a 300 ms depolarization to +20 mV (analogous to the plateau phase of the cardiac action potential), a repolarization for 300 ms to −50 mV (inducing a tail current) and a final step to the holding potential of −80 mV. The pulse frequency was 0.3 Hz. Control (compound-free) and compound pulse trains for each compound concentration applied contained 70 pulses.
Whole-cell current recordings and compound application were enabled by means of an automated patch clamp platform Patchliner (Nanion). EPC 10 patch clamp amplifier (HEKA) along with Patchmaster software (HEKA Elektronik Dr. Schulze GmbH) was used for data acquisition. Data were sampled at 10 kHz without filtering. Increasing compound concentrations were applied consecutively to the same cell without washouts in between.
as §2, with “PEAK” for “peak”, “IC50” for “IC50,”, “Icompound/Icontrol=(100-A)/(1+([compound]/IC50)nH)+A,” for “Icompound/Icontrol=(100−A)/(1+([compound]/IC50)nH)+A,”, “IC50” for “IC50 value”

[3] = CHO-K1 cells stably expressing Kv1.3, 100 ms pulses from -90 mV to +40 mV, 0.1 Hz
[4] = CHO-K1 cells stably expressing hERG, +20 mV 300 ms, -50 mV 300 ms tail current, 0.3 Hz
[5] = Kv1.3 potassium channel, whole-cell patch clamp
[6] = hERG channel, whole-cell patch clamp

T1 sequence (P22001 whole entry): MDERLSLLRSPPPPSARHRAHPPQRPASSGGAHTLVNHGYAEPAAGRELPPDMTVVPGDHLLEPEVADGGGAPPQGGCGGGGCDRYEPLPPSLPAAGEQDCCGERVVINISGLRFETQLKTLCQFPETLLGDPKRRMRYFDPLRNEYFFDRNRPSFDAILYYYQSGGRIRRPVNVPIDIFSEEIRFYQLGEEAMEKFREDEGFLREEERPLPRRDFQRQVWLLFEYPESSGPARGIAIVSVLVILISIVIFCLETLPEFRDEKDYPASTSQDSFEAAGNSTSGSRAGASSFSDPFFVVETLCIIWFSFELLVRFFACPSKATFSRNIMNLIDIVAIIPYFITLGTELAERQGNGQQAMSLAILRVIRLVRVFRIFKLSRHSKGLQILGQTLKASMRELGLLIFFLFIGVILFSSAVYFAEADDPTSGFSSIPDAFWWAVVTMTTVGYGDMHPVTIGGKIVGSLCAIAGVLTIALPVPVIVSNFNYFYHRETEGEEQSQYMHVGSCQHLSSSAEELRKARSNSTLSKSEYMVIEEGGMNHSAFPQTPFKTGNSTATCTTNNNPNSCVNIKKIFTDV
T2 sequence (Q12809 whole entry): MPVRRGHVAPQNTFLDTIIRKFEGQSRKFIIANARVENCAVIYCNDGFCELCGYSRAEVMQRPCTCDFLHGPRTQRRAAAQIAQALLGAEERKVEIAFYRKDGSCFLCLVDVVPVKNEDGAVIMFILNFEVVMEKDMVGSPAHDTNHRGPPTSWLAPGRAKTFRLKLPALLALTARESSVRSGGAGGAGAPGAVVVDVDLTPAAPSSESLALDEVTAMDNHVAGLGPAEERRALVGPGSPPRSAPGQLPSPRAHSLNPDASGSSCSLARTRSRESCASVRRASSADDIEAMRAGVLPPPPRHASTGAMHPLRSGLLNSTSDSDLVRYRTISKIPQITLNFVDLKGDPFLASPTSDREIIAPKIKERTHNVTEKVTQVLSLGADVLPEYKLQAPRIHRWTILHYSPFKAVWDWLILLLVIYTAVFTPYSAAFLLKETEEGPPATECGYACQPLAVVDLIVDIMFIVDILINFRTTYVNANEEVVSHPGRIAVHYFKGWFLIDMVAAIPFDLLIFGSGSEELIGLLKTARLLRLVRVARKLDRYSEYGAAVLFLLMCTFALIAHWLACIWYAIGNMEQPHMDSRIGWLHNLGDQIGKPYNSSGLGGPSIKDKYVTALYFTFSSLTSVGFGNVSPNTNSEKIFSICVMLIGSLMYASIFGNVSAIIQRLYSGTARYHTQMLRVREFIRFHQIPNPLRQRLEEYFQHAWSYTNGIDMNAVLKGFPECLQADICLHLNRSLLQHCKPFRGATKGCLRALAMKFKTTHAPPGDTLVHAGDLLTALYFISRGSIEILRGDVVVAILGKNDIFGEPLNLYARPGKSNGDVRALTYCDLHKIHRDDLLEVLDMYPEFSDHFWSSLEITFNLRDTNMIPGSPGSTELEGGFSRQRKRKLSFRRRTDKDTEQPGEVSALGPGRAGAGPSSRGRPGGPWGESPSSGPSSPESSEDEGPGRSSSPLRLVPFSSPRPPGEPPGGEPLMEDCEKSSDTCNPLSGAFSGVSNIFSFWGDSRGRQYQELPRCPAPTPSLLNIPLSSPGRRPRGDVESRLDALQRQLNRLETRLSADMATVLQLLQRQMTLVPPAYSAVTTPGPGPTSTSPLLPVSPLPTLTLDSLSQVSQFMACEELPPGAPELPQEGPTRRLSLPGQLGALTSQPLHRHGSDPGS

Row | SMILES | IC50 [1, 5] [nM] | other results
1 | O=C([C@H](O)CO)N1CC(=O)N2CC[C@H](c3c(O)ccc(Cl)c3Cl)C[C@@H]2C1 (relative stereo) [Compound 10, (8S,9aR)-rel-8-(2,3-dichloro-6-hydroxyphenyl)-2-[(2R)-2,3-dihydroxypropanoyl]-hexahydro-1H-pyrido[1,2-a]pyrazin-4-one] |  | IC50 [1, 3]: < 1000 nM; IC50 [2, 4]: > 30000 nM
2 | O=C1[C@@H](CO)NC[C@@H]2C[C@H](c3c(O)ccc(Cl)c3Cl)CCN12 (relative stereo) [Compound 28, (8R,9aS)-rel-8-(2,3-dichloro-6-hydroxyphenyl)-3-((3R)-hydroxymethyl-octahydropyrido[1,2-a]pyrazin-4-one trifluoroacetic acid] |  | IC50 [1, 3]: < 1000 nM; IC50 [2, 4]: > 30000 nM
3 | O=C(C1CNC1)N1CC(=O)N2CC[C@@H](c3c(O)ccc(Cl)c3Cl)C[C@H]2C1 (relative stereo) [Compound 32, (8S,9aR)-rel-2-(azetidine-3-carbonyl)-8-(2,3-dichloro-6-hydroxyphenyl)-hexahydro-1H-pyrido[1,2-a]pyrazin-4-one] |  | IC50 [1, 3]: < 1000 nM; IC50 [2, 4]: > 30000 nM
4 | O=C1CN([C@@H]2C[C@@H](O)[C@@H](O)C2)C[C@@H]2C[C@H](c3c(O)ccc(Cl)c3Cl)CN12 (relative stereo) [Compound 131, (7R,8aS)-7-(2,3-dichloro-6-hydroxyphenyl)-2-[(1S,3R,4S)-rel-3,4-dihydroxycyclopentyl]-hexahydropyrrolo [1,2-a]pyrazin-4-one] | < 1000 | IC50 [2, 6]: > 30000 nM
5 | O=C(CO)N1CC[C@@H]2C[C@H](c3c(O)ccc(Cl)c3Cl)CN2C(=O)C1 [Compound 90, (8R,9aS)-8-(2,3-dichloro-6-hydroxyphenyl)-3-(2-hydroxyacetyl)-hexahydro-1H-pyrrolo[1,2-d][1,4]diazepin-5-one] | < 1000 | 
6 | CCN(CC)C(=O)N1CC(=O)N2C[C@@H](c3c(O)ccc(Cl)c3Cl)C[C@H]2C1 [Compound 99, (7R,8aS)-7-(2,3-dichloro-6-hydroxyphenyl)-N,N-diethyl-4-oxo-hexahydropyrro[1,2-a]pyrazine-2-carboxamide] | < 1000 | 
7 | C=CCN1CC(=O)N2C[C@@H](c3c(O)ccc(Cl)c3Cl)C[C@H]2C1 [Compound 113, (7R,8aS)-7-(2,3-dichloro-6-hydroxyphenyl)-2-(prop-2-en-1-yl)-hexahydropyrrolo [l,2-a]pyrazin-4-one] | < 1000 | 
8 | Nc1cnc(N2CC(=O)N3C[C@@H](c4c(O)ccc(Cl)c4Cl)C[C@H]3C2)nc1 [Compound 170, (7R,8aS)-2-(5-aminopyrimidin-2-yl)-7-(2,3-dichloro-6-hydroxyphenyl)-hexahydropyrrolo[1,2-a]pyrazin-4-one] | < 1000 | 
9 | O=C1CN(c2ncccc2CO)C[C@@H]2C[C@H](c3c(O)ccc(Cl)c3Cl)CN12 [Compound 174] | < 10000 | 
10 | CC(=O)NCC1OC[C@@H]2C[C@H](c3c(O)ccc(Cl)c3Cl)CCN2C1=O (stereo partly drawn) [Compound 186, N-[[(8R,9aS)-8-(2,3-dichloro-6-hydroxyphenyl)-4-oxo-hexahydro-1H-pyrido[2,1-c][1,4]oxazin-3-yl]methyl]acetamide] | < 1000 | 
11 | O=C(O)C1CC(=O)N2C[C@@H](c3c(O)ccc(Cl)c3Cl)C[C@H]2C1 (stereo partly drawn) [Compound 229, (2R,8aS)-2-(2,3-dichloro-6-hydroxyphenyl)-5-oxo-hexahydro-1H-indolizine-7-carboxylic acid] | < 1000 | 
12 | O=C1CC[C@@H]2C[C@H](c3c(O)ccc(Cl)c3Cl)CN12 [Compound 244, (6R,7aR)-6-(2,3-dichloro-6-hydroxyphenyl)-hexahydropyrrolizin-3-one] | < 1000 | 
13 | O=C1C(CO)C[C@@H]2C[C@H](c3c(O)ccc(Cl)c3Cl)CN12 (stereo partly drawn) [Compound 247, (6R,7aS)-6-(2,3-dichloro-6-hydroxyphenyl)-2-(hydroxymethyl)-hexahydropyrrolizin-3-one] | < 1000 | 
14 | O=C1N(CCO)C[C@@H]2C[C@H](c3c(O)ccc(Cl)c3Cl)CN12 [Compound 290, (6R,7aS)-6-(2,3-dichloro-6-hydroxyphenyl)-2-(2-hydroxyethyl)hexahydro-3H-pyrrolo[1,2-c]imidazol-3-one] | < 10000 | 
15 | CN1C[C@@H]2C[C@H](c3c(O)ccc(Cl)c3Cl)CN2C1=O [Compound 291, (6R,7aS)-6-(2,3-dichloro-6-hydroxyphenyl)-2-methyl-tetrahydro-1H-pyrrolo[1,2-c]imidazol-3-one] | < 10000 | 

More lines, main results first:

Row | IC50 [1, 5] [nM] | SMILES | other results
16 | < 1000 | O=C1CN([C@H]2C[C@H](O)C2)C[C@@H]2C[C@H](c3c(O)ccc(Cl)c3Cl)CN12 (relative stereo) [Compound 125, (7R,8aS)-7-(2,3-dichloro-6-hydroxyphenyl)-2-[(1r,3S)-rel-3-hydroxycyclobutyl] hexahydropyrrolo [1,2-a]pyrazin-4-one] | IC50 [2, 6]: > 30000 nM
17 | < 1000 | O=C1CN([C@H]2C[C@@H](O)C2)C[C@@H]2C[C@H](c3c(O)ccc(Cl)c3Cl)CN12 (relative stereo) [Compound 126, (7R,8aS)-7-(2,3-dichloro-6-hydroxyphenyl)-2-[(1s,3R)-rel-3-hydroxycyclobutyl] hexahydropyrrolo [1,2-a]pyrazin-4-one] | IC50 [2, 6]: > 30000 nM
18 | < 1000 | O=C1CN([C@H]2C[C@@H](O)[C@@H](O)C2)C[C@@H]2C[C@H](c3c(O)ccc(Cl)c3Cl)CN12 (relative stereo) [Compound 130, (7R,8aS)-7-(2,3-dichloro-6-hydroxyphenyl)-2-[(1R,3R,4S)-rel-3,4-dihydroxycyclopentyl]-hexahydropyrrolo [1,2-a]pyrazin-4-one] | IC50 [2, 6]: > 30000 nM
19 | < 1000 | O=C1NCCC1N1CC(=O)N2C[C@@H](c3c(O)ccc(Cl)c3Cl)C[C@H]2C1 (stereo partly drawn) [Compound 109, 3-[(7R,8aS)-7-(2,3-dichloro-6-hydroxyphenyl)-4-oxo-hexahydropyrrolo [1,2-a]pyrazin-2-yl]pyrrolidin-2-one] | 
20 | < 1000 | O=C1CN(c2ccc(CO)cn2)C[C@@H]2C[C@H](c3c(O)ccc(Cl)c3Cl)CN12 [Compound 168, (7R,8aS)-7-(2,3-dichloro-6-hydroxyphenyl)-2-[5-(hydroxymethyl)pyridin-2-yl]-hexahydropyrrolo[1,2-a]pyrazin-4-one] | 
21 | < 10000 | O=C1CCCN1CC1OC[C@@H]2C[C@H](c3c(O)ccc(Cl)c3Cl)CCN2C1=O (stereo partly drawn) [Compound 184, 1-[[(8R,9aS)-8-(2,3-dichloro-6-hydroxyphenyl)-4-oxo-hexahydro-1H-pyrido[2,1-c][1,4]oxazin-3-yl]methyl]pyrrolidin-2-one] | 
22 | < 1000 | O=C1OC[C@@H]2C[C@H](c3c(O)ccc(Cl)c3Cl)CCN12 [Compound 252, (7R,8aS)-7-(2,3-dichloro-6-hydroxyphenyl)-hexahydro-[1,3]oxazolo[3,4-a]pyridin-3-one] | 
